Tests used:
[1] = Metabolic stability in human hepatic microsomes; conditions: 1 μM
Protocol: (§1) This test allows evaluation of the metabolic stability of the compounds of the invention and of the comparative compounds in rats and in man.
(§2) The compounds to be analysed, at a final concentration of 0 and 1 μM, were placed in a suspension containing the pool of microsomes at a final concentration of 0.5 mg/mL in a final volume of 200 μL, in 96-well plates. The test was standardized with phosphate buffer (75 mM, pH 7.4) and with the NADPH regenerating system (MgCl2: 3.3 mM; G6P: 3.3 mM; G6PD: 0.4 U/mL; NADP+: 1.3 mM). […] The samples were incubated at 37° C. in a humidified incubator. At time 0 and after 60 minutes, 100 μL of acetonitrile containing the internal standard (0.2 μM of metoprolol and 0.4 μM of diclofenac) were added to stop the reaction.
(§3) The samples were centrifuged before analysis. The HPLC/MS/MS analysis was performed using an electrospray ion source in positive ionization and SRM (Single Reaction Mode). The chromatographic conditions entail the use of an XDB-C18 column (2.1×50 mm, Agilent) and a gradient from 5% to 91% of acetonitrile in water containing 0.1% formic acid (total runtime equal to 6 minutes); the flow rate was 0.5 ml/minute.
(§4) The areas of the peaks for the test compounds were integrated and the results expressed as the analyte area/internal standard (PAR) area ratio. For each time, two samples were analysed and the mean value calculated. The percentage of the value of remaining compound was calculated as: % unmetabolized compound=100*(mean PARTfinal/mean PART0).

[2] = test system: production of PGE2; assay: Inhibition of PGE2 production in IL-1β-stimulated A549 cells (EIA); assay type: cell-based; conditions: Homo sapiens, IL-1β 1 ng/ml, 22 hours
Excerpt: (§5) This test allows evaluation of the inhibitory capacity on the production of the PGE2 and the selectivity relative to the production of the PGF2α.
(§6) The cell line A549, human pulmonary adenocarcinoma, was used, which is particularly sensitive to stimulation with pro-inflammatory cytokines, for instance IL-1β, and, in response to this stimulation, is particularly active in the production and release of two prostanoids: PGE2 and PGF2α (Thoren S. Jakobsson P-J, 2000).
(§7) The cells were stimulated with IL-1β (1 ng/ml) and simultaneously treated with the test compound for 22 hours in an appropriate culture medium (DMEM—Dulbecco's Modified Eagle's Medium) supplemented with 5% foetal calf serum and L-glutamine (4 mM final) in an incubator at 37° C. and at a CO2 concentration of 5%.
(§8) After the incubation, the amount of PGE2 and PGF2α produced and released into the supernatant were assayed using an EIA kit (produced and sold by Cayman Chemicals, Ann Arbor, Mich., USA).
(§9) The comparative compound used was indomethacin at a concentration of 10 nM (Sigma-Aldrich), a non-steroidal anti-inflammatory drug that inhibits in equal measure both PGE2 and PGF2α.
(§10) The results, expressed as the IC50 values, i.e. as the concentration of compound that inhibits 50% of the production of PGE2 and of PGF2α relative to the cells that have been stimulated, but not treated with the same compound, are given in Table 2. The inactivity or the reduced activity of the compound on the biosynthesis of PGF2α is an indication of selectivity towards the production of PGE2 and thus of selective inhibition of mPGES-1.

[3] = test system: production of PGF2α; assay: Inhibition of PGF2α production in IL-1β-stimulated A549 cells (EIA); assay type: cell-based; conditions: Homo sapiens, IL-1β 1 ng/ml, 22 hours
Excerpt: as §5, §6, §7, §8, §9, §10

[4] = in vitro; conditions: human, Caco-2, pH 7.4
Protocol: This test allows evaluation of the amount absorbed by the intestinal barrier of the compounds of the invention and of the comparative compounds using the Caco-2 cell line as an in vitro model of intestinal barrier. The permeability test on Caco-2 cells represents an in vitro system approved for predicting and estimating the in vivo intestinal absorption of a drug. When the Caco-2 cells are cultured on a porous filter for about 21 days, they have the capacity to differentiate into enterocytes.
The compounds undergoing the test were diluted from a 10 mM stock solution in HBSS to a final concentration of 10 μM. The system consisted of a confluent cellular monolayer in culture for 21-28 days.
Each compound was tested in triplicate, bidirectionally, at pH 7.4, from the apical to the basolateral compartment (A→B) and from the basolateral to the apical compartment (B→A).
The samples collected at the given time were analysed by HPLC-MS/MS, using an electrospray ion source in positive ionization and SRM (Single Reaction Mode). The chromatographic conditions entailed the use of an XDB-C18 column (2.1×50 mm, Agilent) with a gradient from 5% to 91% of acetonitrile in water containing 0.1% formic acid (total runtime equal to 6.5 minutes) and a flow rate of 0.5 ml/minute. Metoprolol was used as the internal standard.
The concentration data were used to calculate the apparent permeability values (Papp), and the mean and standard deviation of the Papp were calculated.
The flux ratio was calculated as Papp(B→A)/Papp(A→B). The recovery percentage was calculated as: (amount in the receiving compartment+amount in the donor compartment)/nominal amount
The area of the peaks of the test compounds were integrated and the results were expressed as the analyte area/internal standard area ratio and corrected for the dilution factor used during the preparation of the sample. The apparent permeability coefficients were calculated using the following equation: […]
in which: • VA volume in the receiving well (0.25 mL for the test from A→B, 0.075 mL for the test from B→A) • Area area of the membrane surface (0.11 cm^2) • Time total transport time (3600 seconds)

[5] = Metabolic stability in rat hepatic microsomes; conditions: 1 μM
Protocol: as §1, §2, §3, §4

[6] = test system: mice; assay: Acetic acid-induced writhing in mice; assay type: in vivo; conditions: for No. of writhes: 20 minutes after acetic acid; for % of inhibition: writhes vs vehicle
Protocol: The test compound was evaluated in the model of acetic acid-induced writhing in mice (Stock J. L. et al., J. Clin. Inv. 2001, 107: 325-331). This test allows evaluation of the antinociceptive activity of the compounds of the invention in a model of inflammatory pain.
Female CD-1 mice weighing 25-30 g were used for the test. The animals were treated intraperitoneally with the test compound (0.1-10 mg/kg) suspended in methylcellulose (MTC). The control animals were treated with the vehicle alone (MTC) via the same route.
Half an hour after the treatment, an intraperitoneal injection of acetic acid (0.7% v/v in physiological saline, 16 μl/g of body weight) was given to the animals to induce inflammatory pain and to check the effects of the test compound on the nociceptive response.
Immediately after the administration of acetic acid and for the following 20 minutes the number of writhes was measured, which represents the parameter for evaluation of the nociceptive response.

[7] = In vivo bioavailability, oral cassette dosing; conditions: oral 5 mg/kg; for Cmax / Tmax / AUC(0-t): plasma; for AUC(0-t): first seven hours, read-out: AUC0-7
Protocol: This test allowed evaluation of the in vivo bioavailability of the compounds of the invention, thus making it possible to evaluate and compare the pharmacokinetic profile of the test compounds.
The tests were performed using the cassette method, i.e. by administering orally several products simultaneously to the same animal, at a dose of 5 mg/kg. The products were suspended in methylcellulose (MTC). The treated animals were catheterized for the serial collection of blood samples performed by means of an automatic sampling system. The plasmatic concentrations of the products were measured by HPLC/MS/MS. The profiles of the plasmatic concentrations over time made it possible to evaluate the relative bioavailability of the test products in terms of rate (tmax and Cmax) and […] (AUC). The slope of the curve in the end portion also allowed a comparative evaluation of the rate of elimination of the compounds from the plasma, the slower the rate, the lower the slope. Three animals were treated for each combination of compounds.
The results, expressed as the Cmax, i.e. as the maximum concentration of drug reached in the plasma, Tmax, i.e. the time required to reach the maximum drug concentration in the plasma, and AUC0-7, i.e. the area under the curve of the plasmatic concentrations of drug over time, measured in the first seven hours after administration, are given in Table 5.

[8] = Sprague-Dawley, rat, microsomes, 1 h, pH 7.4
[9] = microsomes 0.5 mg/mL, 60 minutes, 37° C.

SMILES | % unmetabolized compound, Man ([1]; human, microsomes, 1 h, pH 7.4) [%] | IC50 [2] [nM] | IC50 [3] [nM] | Papp at 3600 seconds, 10 μM [4] [×10⁻⁶ cm/s] | % unmetabolized compound, Rat [5, 8] [%] | melting point [°C] | other results
O=C(Nc1ccc2c(c1)c1ccccc1n2CCO)c1ccccc1C(F)(F)F [Compound 1, N-[9-(2-hydroxyethyl)-9H-carbazol-3-yl]-2-(trifluoromethyl)benzamide] | 81 | 2900 | > 100000 | > 20 | 58 | 176 to 177 | No. of writhes ([6]; 0.1 mg/kg intraperitoneally): 38.4 ± 3.99; % of inhibition ([6]; 0.1 mg/kg intraperitoneally): 21%; No. of writhes ([6]; 1 mg/kg intraperitoneally): 31.5 ± 5.72; % of inhibition ([6]; 1 mg/kg intraperitoneally): 35%; No. of writhes ([6]; 10 mg/kg intraperitoneally): 12.8 ± 2.46; % of inhibition ([6]; 10 mg/kg intraperitoneally): 74%; bioavailability / absorption in words [7]: good bioavailability characteristics; Cmax [7]: 1200 ng/mL; Tmax [7]: 1.5 h; AUC(0-t) [7]: 5750 ng·h/mL
CC(C)(O)Cn1c2ccccc2c2cc(NC(=O)c3ccccc3C(F)(F)F)ccc21 [Compound 2, N-[9-(2-hydroxy-2-methylpropyl)-9H-carbazol-3-yl]-2-(trifluoro-methyl)benzamide] | 82 | 2300 | > 100000 | > 20 | 68 | 179 to 181 | bioavailability / absorption in words [7]: good bioavailability characteristics; Cmax [7]: 984 ng/mL; Tmax [7]: 4.3 h; AUC(0-t) [7]: 5400 ng·h/mL
CC(C)(O)CCn1c2ccccc2c2cc(NC(=O)c3ccccc3C(F)(F)F)ccc21 [Compound 3, N-[9-(3-hydroxy-3-methylbutyl)-9H-carbazol-3-yl]-2-(trifluoromethyl)benzamide] | 77 | 1400 | > 100000 | > 20 | 65 | 188 to 189 | bioavailability / absorption in words [7]: good bioavailability characteristics; Cmax [7]: 457 ng/mL; Tmax [7]: 1.8 h; AUC(0-t) [7]: 2670 ng·h/mL
CC(=O)Cn1c2ccccc2c2cc(NC(=O)c3ccccc3C(F)(F)F)ccc21 [Compound 4, N-[9-(2-oxopropyl)-9H-carbazol-3-yl]-2-(trifluoromethyl)benzamide] | 7 | 5600 | > 100000 | > 20 | 58 | 223 to 226 | 
O=C(Nc1ccc2c(c1)c1ccccc1n2CCO)c1ccccc1Cl [Compound 5, 2-chloro-N-[9-(2-hydroxyethyl)-9H-carbazol-3-yl]benzamide] | 76 |  |  | > 20 | 63 | 168 to 169 | 
CC(C)(O)CCn1c2ccccc2c2cc(NC(=O)c3ccccc3Cl)ccc21 [Compound 6, 2-chloro-N-[9-(3-hydroxy-3-methylbutyl)-9H-carbazol-3-yl]benzamide] | 65 | 600 | > 100000 | > 20 | 74 | 120 to 124 | 
C[C@H]1O[C@@H](O[C@H]2[C@@H](O)C[C@H](O[C@H]3[C@@H](O)C[C@H](O[C@H]4CC[C@@]5(C)[C@H](CC[C@@H]6[C@@H]5C[C@@H](O)[C@]5(C)[C@@H](C7=CC(=O)OC7)CC[C@]65O)C4)O[C@@H]3C)O[C@@H]2C)C[C@H](O)[C@@H]1O [Digoxin, digoxin, reference compound] |  |  |  | < 2 |  |  | 
COc1ccc2c(c1)c(CC(=O)O)c(C)n2C(=O)c1ccc(Cl)cc1 [Indomethacin, indomethacin, reference compound] |  | 5 | 3 |  |  |  | 
CC(C)NCC(O)COc1cccc2ccccc12 (stereo not drawn) [Propranolol, propranolol, reference compound] |  |  |  | > 20 |  |  | 
C[C@]12CC[C@H]3[C@@H](CCC4=CC(=O)CC[C@@]43C)[C@@H]1CC[C@@H]2O [Testosterone, testosterone, reference compound] |  |  |  |  |  |  | % unmetabolized compound, Man [1, 9]: 27%; % unmetabolized compound, Rat [5, 9]: 0%
CC(=O)CC(c1ccccc1)c1c(O)c2ccccc2oc1=O (stereo not drawn) [Warfarin, warfarin, reference compound] | 103 |  |  |  | 97 |  | 

— US9249097B2, “3-aminocarbazole compound, pharmaceutical composition containing it and preparation method therefor” (AZIENDE CHIM. RIUN. ANG. FRANC. A.C.R.A.F. S.p.A., priority 2008, dated 2016)
